Assay results from PubChem BioAssay AID1204 (EPA DSSTox, 2008).
Inconclusive results are not listed. The source made the active and inactive calls.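 How the source made its calls: active means relative estrogen receptor binding affinity above 1E-5, where estradiol scores 100; inconclusive means weak binder, under half inhibition at top dose, or affinity below 1E-5; inactive means no binding seen, affinity zero.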

Tested on: estrogen receptor (rat uterine cytosol)
Experiment: DSSTox (NCTRER) National Center for Toxicological Research Estrogen Receptor Binding Database;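 on relative binding affinity: ratio of estradiol IC50 over compound IC50 times 100 so estradiol equals 100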
Settings: rat uterine cytosol ER competitive binding, RBA; for relative binding affinity: hits give high values
Excerpt: Researchers within FDA's National Center for Toxicological Research (NCTR) generated a database of experimental estrogen receptor binding results for the express purpose of developing improved QSAR models to predict ER binding affinities.The NCTR ER database is a structurally diverse set of natural, synthetic, and environmental estrogens covering most known estrogenic classes and spanning a wide range of biological activity. It represents the largest published ER binding database of same-assay results generated in a single laboratory. […] Information on the percent purity and purchasing source for all chemicals are not included in the DSSTox SDF, but can be obtained from the original NCTR ER Source database and Main Citations listed below. The main citation (Fang et al., 2001) surveys the NCTR ER database from a chemical class based, structure-activity relationship (SAR) perspective. Qualitative SAR characteristics of the NCTR ER database are discussed and a set of general hierarchical rules for identifying potential estrogens are presented. The DSSTox NCTRER SDF augments the original NCTR ER database with chemical class and SAR information abstracted from Fang et al. (2001). The DSSTox SDF file supplements the measured ER relative binding affinity for each chemical (ER_RBA) with chemical class assignment to one of 6 major estrogenic classes further divided into 20 subclasses (ChemClass_ERB), along with a qualitative activity measure, ActivityCategory_ER_RBA. A brief narrative SAR rationale pertaining to ER RBA patterns observed by Fang et al. (2001) for each of the 20 subclasses within the database are provided in the field, ActivityCategory_Rationale_ChemClass_ERB. The original NCTR ER database, from which the expanded DSSTox NCTRER was formed, is contained within a larger Endocrine Disruptor Knowledge Base (EDKB) accessible from the FDA Source Website. That website provides online access to a relational database comprised of in vitro and in vivo experimental data for about 2000 natural and synthetic compounds, much of this extracted from the literature and representing testing in many laboratories. Data are included for biological assays that measure estrogenic and androgenic activity. Estrogenic endpoints include in vitro assays for estrogen receptor competitive binding affinity, cell proliferation, and reporter-gene assays, and in vivo assays for uterotrophic activity (i.e., uterine weight gain and vaginal cornification). The database also contains a bibliography of over 1200 citations, many of which include abstracts.
Estrogen receptor relative binding affinity is determined using a competitive receptor binding assay as described in NCTRER Ref (Blair et al., 2000). Briefly, a chemical competes with radiolabeled E2 (i.e., estradiol) for binding to the ER in rat uterine cytosol and the concentration of chemical that causes 50% inhibition of E2 binding (i.e., IC50) is measured. The ER_RBA is calculated by dividing the IC50 of E2 (9X10-10M) by the IC50 of the competitor and multiplying by 100 (E2 RBA = 100). The validated assay tested 1nM E2 with concentrations of competitor ranging from 1nM to 1mM. The larger the ER_RBA values, the greater the binding affinity; ER_RBA > 100 means compound has greater binding affinity than natural ER ligand, E2. […] Activity Score is mapping of LOG_ER_RBA values (ER-RBA>1E-5), spanning activity range [MIN, MAX] onto Integer 20-100 Activity range, where 100 is highest potency and 20 is lowest active potency. If Activity Outcome is "active": Activity Score = 80 * INTEGER[(LOG_ER_RBA - MIN)/(MAX […] MIN)]. If Activity Outcome is "inconclusive" (i.e., slight binder): Activity Score = 5.

[1] = ChemClass_ERB: Phytoestrogens Flavanones
[2] = ChemClass_ERB: Phytoestrogens Isoflavones
[3] = ChemClass_ERB: Steroids With aromatic A ring
[4] = ChemClass_ERB: Phenols Alkyloxy
[5] = ChemClass_ERB: Diphenylmethanes Diphenolalkanes
[6] = ChemClass_ERB: Steroids Without aromatic A ring
[7] = ChemClass_ERB: DES Triphenylethylenes

O=C1CC(c2cccc(O)c2)Oc2ccccc21 (configuration not stated)
relative binding affinity [1]: 0.00165%

O=C(O)/C=C/c1ccccc1
outcome (ChemClass_ERB: Misc): inactive

CNC(=O)Oc1cccc2c1OC(C)(C)C2
outcome (ChemClass_ERB: Misc): inactive

CCNc1nc(Cl)nc(NC(C)C)n1
outcome (ChemClass_ERB: Misc): inactive

COc1ccc(-c2coc3cc(O)ccc3c2=O)cc1
relative binding affinity [2]: 0.00104%

C[C@]12CC[C@@H]3c4ccc(O)cc4[C@@H](O)C[C@H]3[C@@H]1CC[C@@H]2O
relative binding affinity [3]: 0.708%

C/C=C/c1ccc(O)c(OC)c1
outcome [4]: inactive

CC(CCC(=O)O)(c1ccc(O)cc1)c1ccc(O)cc1
relative binding affinity [5]: 0.00074%

C#C[C@]1(O)CC[C@H]2[C@@H]3CCc4cc(OC)ccc4[C@H]3CC[C@@]21C
relative binding affinity [3]: 2.24%

O=C(c1ccc(O)cc1)c1ccc(O)cc1
relative binding affinity (ChemClass_ERB: Diphenylmethanes Benzophenone): 0.0035%

Oc1ccccc1Cc1ccccc1O
outcome [5]: inactive

O=Cc1ccco1
outcome (ChemClass_ERB: Misc): inactive

O=c1c(-c2ccc(O)cc2)coc2cc(O[C@@H]3O[C@H](CO)[C@@H](O)[C@H](O)[C@H]3O)cc(O)c12
outcome [2]: inactive

C[C@]12CC[C@@H]3c4ccc(O)cc4CC[C@H]3[C@@H]1CC[C@H]2O
relative binding affinity [3]: 3.09%

C[C@]12CC[C@H]3[C@@H](CCC4=CC(=O)CC[C@@]43C)[C@@H]1CC[C@H]2O
outcome [6]: inactive

CCCOC(=O)c1ccc(O)cc1
relative binding affinity (ChemClass_ERB: Phenols Parabens): 0.0006%

CCC(C)(C)c1ccc(O)cc1
relative binding affinity (ChemClass_ERB: Phenols Alkyl): 0.00054%

ClC1(Cl)C2(Cl)C3(Cl)C4(Cl)C(Cl)(Cl)C5(Cl)C3(Cl)C1(Cl)C5(Cl)C24Cl (configuration not stated)
outcome (ChemClass_ERB: Misc): inactive

COc1ccc(C(=O)c2ccccc2O)c(O)c1
outcome (ChemClass_ERB: Diphenylmethanes Benzophenones): inactive

C[C@]12C[C@H](O)[C@H]3[C@@H](CCC4=CC(=O)CC[C@@]43C)[C@@H]1CC[C@@H]2C(=O)CO
outcome [6]: inactive

CC(C)CCC[C@@H](C)[C@H]1CC[C@H]2[C@@H]3CC=C4C[C@@H](O)CC[C@]4(C)[C@H]3CC[C@]12C
outcome [6]: inactive

C[Si](C)(O[Si](C)(C)c1ccccc1)c1ccccc1
relative binding affinity (ChemClass_ERB: Misc): 0.00069%

C[C@]12CC[C@H](O)C[C@@H]1CC[C@@H]1[C@@H]2CC[C@]2(C)[C@@H](O)CC[C@@H]12
relative binding affinity [6]: 0.12%

Oc1ccc([C@H]2COc3cc(O)ccc3C2)cc1
relative binding affinity [2]: 0.151%

ClC1C(Cl)C(Cl)C(Cl)C(Cl)C1Cl (configuration not stated)
outcome (ChemClass_ERB: Misc): inactive

C=CCc1ccc(O)c(OC)c1
outcome [4]: inactive

C[C@H]1CCC[C@H](O)CCCCCc2cc(O)cc(O)c2C(=O)O1
relative binding affinity (ChemClass_ERB: Phytoestrogens Mycoestrogens): 30.2%

O=C1CC(c2ccccc2)Oc2ccccc21 (configuration not stated)
outcome [1]: inactive

Oc1ccc(-c2ccccc2)cc1
relative binding affinity (ChemClass_ERB: Biphenyls nonchlorinated): 0.00091%

O=C1CCC(N2C(=O)c3ccccc3C2=O)C(=O)N1 (configuration not stated)
outcome (ChemClass_ERB: Misc): inactive

COC(=O)c1ccccc1C(=O)OC
outcome (ChemClass_ERB: Misc): inactive

CC(C)CCCCCCOC(=O)c1ccccc1C(=O)OCCCCCCC(C)C
outcome (ChemClass_ERB: Misc): inactive

CC[C@H](c1ccc(O)cc1)[C@@H](CC)c1ccc(O)cc1
relative binding affinity (ChemClass_ERB: DES Hexestrol derivatives): 301%

C[C@]12CC[C@@H]3c4ccccc4CC[C@H]3[C@@H]1CCC2=O
relative binding affinity [3]: 0.0063%

Clc1ccc(C(c2ccccc2Cl)C(Cl)(Cl)Cl)cc1 (configuration not stated)
relative binding affinity (ChemClass_ERB: Diphenylmethanes DDTs): 0.00141%

CCCCCCCCCCCCc1ccc(O)cc1
relative binding affinity (ChemClass_ERB: Phenols Alkyl): 0.0186%

CCc1cccc(CC)c1N(COC)C(=O)CCl
outcome (ChemClass_ERB: Misc): inactive

Clc1ccc(-c2ccc(Cl)cc2)cc1
outcome (ChemClass_ERB: Biphenyls PCBs): inactive

O=c1c(-c2ccc(O)cc2)coc2cc(O)ccc12
relative binding affinity [2]: 0.022%

O=C(O)CCCCCCC(=O)O
outcome (ChemClass_ERB: Misc): inactive

C[C@@H]1O[C@@H](O[C@H]2[C@H](Oc3cc(O)c4c(c3)O[C@H](c3ccc(O)cc3)CC4=O)O[C@H](CO)[C@@H](O)[C@@H]2O)[C@H](O)[C@H](O)[C@H]1O
outcome [1]: inactive

Oc1ccccc1
outcome (ChemClass_ERB: Phenols Alkyl): inactive

COc1ccc2c(c1)CC[C@@H]1[C@@H]2CC[C@]2(C)[C@@H](O)[C@H](O)C[C@@H]12
relative binding affinity [3]: 0.0224%

CC/C(=C(\c1ccccc1)c1ccc(OCCN(C)C)cc1)c1ccc(O)cc1
relative binding affinity [7]: 174%

C(=C(c1ccccc1)c1ccccc1)c1ccccc1
relative binding affinity [7]: 0.00165%

C[C@]12CC[C@@H]3c4ccccc4CC[C@H]3[C@@H]1CC[C@@H]2O
relative binding affinity [3]: 0.501%

CCCCc1ccccc1
outcome (ChemClass_ERB: Misc): inactive
